Source: the supplement of paper PMC5908809

What was measured:
[1] = test system: normal NK cells expanded with K562-aAPC; test: percent inhibition of viability; higher = more inhibition; details: 72 h, IL-2 2.5 ng/mL
Method: (§1)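 Drug sensitivity and resistance testing on K562-aAPC-expanded normal NK cells: 5 concentrations (10-fold steps over a 10,000-fold range), 72 h at 37 °C, viability by CellTiter-Glo normalised to DMSO and benzethonium chloride controls; DSS from the fitted curve.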

[2] = test system: normal primary NK cells, pool 1 (3 donors), resting (IL-2 0 ng/mL); test: as above; details: 72 h
[3] = test system: normal primary NK cells, pool 1 (3 donors) (IL-2 2.5 ng/mL); test: as above; details: 72 h
[4] = test system: IMC-1 (IL-2 20 ng/mL); test: as above; details: 72 h
[5] = test system: KAI3 (IL-2 2.5 ng/mL); test: as above; details: 72 h
[6] = test system: NK-YS (IL-2 2.5 ng/mL); test: as above; details: 72 h
[7] = test system: NKL (IL-2 2.5 ng/mL); test: as above; details: 72 h
[8] = test system: DERL-7 (IL-2 2.5 ng/mL); test: as above; details: 72 h
[9] = test system: KHYG-1 (IL-2 2.5 ng/mL); test: as above; details: 72 h
[10] = test system: YT (IL-2 2.5 ng/mL); test: as above; details: 72 h
[11] = test system: normal primary NK cells, pool 3 (3 donors) (IL-2 2.5 ng/mL); test: as above; details: 72 h
[12] = test system: SNK-6 (IL-2 2.5 ng/mL); test: as above; details: 72 h
[13] = test system: NK-92 (IL-2 2.5 ng/mL); test: as above; details: 72 h
[14] = test system: normal primary NK cells, pool 2 (3 donors) (IL-2 2.5 ng/mL); test: as above; details: 72 h
[15] = test system: normal NK cells expanded with K562-aAPC; test: drug sensitivity score (DSS) (DSS units); higher = more sensitive; extreme values may be limits of the assay; details: 72 h; IL-2 2.5 ng/mL
Method: as §1

[16] = test system: normal primary NK cells, pool 1 (3 donors), resting (IL-2 0 ng/mL); test: as above; details: 72 h
[17] = test system: normal primary NK cells, pool 1 (3 donors) (IL-2 2.5 ng/mL); test: as above; details: 72 h
[18] = test system: IMC-1 (IL-2 20 ng/mL); test: as above; details: 72 h
[19] = test system: KAI3 (IL-2 2.5 ng/mL); test: as above; details: 72 h
[20] = test system: NK-YS (IL-2 2.5 ng/mL); test: as above; details: 72 h
[21] = test system: NKL (IL-2 2.5 ng/mL); test: as above; details: 72 h
[22] = test system: DERL-7 (IL-2 2.5 ng/mL); test: as above; details: 72 h
[23] = test system: KHYG-1 (IL-2 2.5 ng/mL); test: as above; details: 72 h
[24] = test system: YT (IL-2 2.5 ng/mL); test: as above; details: 72 h
[25] = test system: normal primary NK cells, pool 3 (3 donors) (IL-2 2.5 ng/mL); test: as above; details: 72 h
[26] = test system: SNK-6 (IL-2 2.5 ng/mL); test: as above; details: 72 h
[27] = test system: NK-92 (IL-2 2.5 ng/mL); test: as above; details: 72 h
[28] = test system: normal primary NK cells, pool 2 (3 donors) (IL-2 2.5 ng/mL); test: as above; details: 72 h

Cc1nc(N)sc1-c1ccnc(Nc2ccc(N3CCOCC3)cc2)n1 [CYC-116] (max concentration tested 10000 nM)
percent inhibition of viability [%]
Details | 1 nM | 10 nM | 100 nM | 1000 nM | 10000 nM
[1] | -2.89 | -0.2 | 2.84 | 57.5 | 82
[2] | -4.6 | 6.4 | -9.95 | -18.7 | 23.6
[3] | -7.14 | -2.39 | -10.8 | 13.2 | 71.7
[4] | -0.53 | -4.65 | 3.54 | 44.8 | 83.8
[5] | -1.55 | -6.85 | 1.16 | 39.8 | 89.7
[6] | -2.66 | -0.98 | 6.79 | 70.6 | 70.8
[7] | -16 | -8.68 | -5.36 | 42.6 | 83.9
[8] | -3.32 | -3.55 | 6.03 | 60.9 | 84.2
[9] | -0.11 | -0.55 | 5.34 | 70.7 | 106
[10] | 0.75 | 1.77 | 4.66 | 29.5 | 94.7
[11] | -12.5 | -8.65 | 4.23 | 3.35 | 71.4
[12] | 0.9 | -6.56 | 15.3 | 73.9 | 72.3
[13] | -10.5 | -10.4 | 3.17 | 39.8 | 72.8
[14] | -11.2 | -13.2 | -3.79 | 16.1 | 68.8

Details | drug sensitivity score
[15] | 11.5
[16] | 0.44
[17] | 6.12
[18] | 9.98
[19] | 10.1
[20] | 14.1
[21] | 9.96
[22] | 12.4
[23] | 14.2
[24] | 9.36
[25] | 4.4
[26] | 16
[27] | 8.76
[28] | 6.33

C[C@@H](Oc1cc(-c2cnn(C3CCNCC3)c2)cnc1N)c1c(Cl)ccc(F)c1Cl [Crizotinib] (max concentration tested 1000 nM)
percent inhibition of viability [%]
Details | 0.1 nM | 1 nM | 10 nM | 100 nM | 1000 nM
[1] | -7.86 | -6.31 | -9.93 | -2.46 | 19.7
[2] | -6.8 | -15.6 | -1.32 | 0.53 | 39.1
[3] | -4.24 | -0.87 | 8.61 | 7.22 | 32.6
[4] | -4.84 | -8.42 | -0.95 | 5.13 | 7.41
[5] | -4.43 | -13.2 | -10.6 | -0.67 | 30.1
[6] | -6.03 | -14.8 | -8.66 | -7.59 | 15.5
[7] | -3.16 | -3.23 | -5.42 | 9.67 | 43.3
[8] | -0.63 | 5.41 | -1.8 | -2.42 | 25.2
[9] | -1.4 | -6.18 | 0.71 | 2.28 | 20.6
[10] | -0.11 | -5.24 | -1.87 | 2.08 | 25.1
[11] | -11.7 | -8.52 | 6.99 | -0.76 | 18
[12] | -16.1 | -28 | -15 | -17.9 | -4.35
[13] | -12.7 | 0.5 | -4.15 | 16.4 | 34.7
[14] | -7.13 | -11.6 | -1.57 | -2.22 | 20.3

Details | drug sensitivity score
[15] | 0.44
[16] | 1.99
[17] | 2.41
[18] | 0
[19] | 1.25
[20] | 0.12
[21] | 3.75
[22] | 0.81
[23] | 0.95
[24] | 1.25
[25] | 0.4
[26] | 0
[27] | 3.72
[28] | 0.49

CS(=O)(=O)c1ccc(C2=C(c3ccccc3)C(=O)OC2)cc1 [Rofecoxib] (max concentration tested 10000 nM)
percent inhibition of viability [%]
Details | 1 nM | 10 nM | 100 nM | 1000 nM | 10000 nM
[1] | 10.3 | 5.54 | 3.01 | 2.73 | 3.42
[2] | -13.7 | -25.3 | -34.2 | -6.69 | -25.9
[3] | -5.06 | -9.08 | -8.33 | 2.49 | 0.6
[4] | 2.54 | 0.06 | 3 | -1.23 | 3.31
[5] | 8.75 | 4.53 | 5.34 | 3.57 | -3.77
[6] | 3.55 | -3.6 | -2.98 | 3.34 | -0.78
[7] | 11.4 | 9.36 | 8.93 | 4.19 | 9.11
[8] | 6.85 | -1.97 | -3.99 | 2.79 | 0.07
[9] | 0.01 | 1.72 | 2.69 | 2.11 | 2.37
[10] | 5.17 | 5.42 | 4.83 | 4.08 | 6.74
[11] | -7.45 | -5.99 | -3.42 | -7.23 | -12.4
[12] | 8.2 | 18.3 | 4.94 | 9.79 | 3.14
[13] | 11.4 | -0.5 | -4.39 | -1.55 | -5.21
[14] | -7.81 | 1.86 | -6.15 | -8.51 | -5.43

Details | drug sensitivity score
[15] | 0
[16] | 0
[17] | 0
[18] | 0
[19] | 0
[20] | 0
[21] | 0
[22] | 0
[23] | 0
[24] | 0
[25] | 0
[26] | 0
[27] | 0
[28] | 0

Cc1ccc(NC(=O)c2ccc(CN3CCN(C)CC3)cc2)cc1Nc1nccc(-c2cccnc2)n1 [Imatinib] (max concentration tested 10000 nM)
percent inhibition of viability [%]
Details | 1 nM | 10 nM | 100 nM | 1000 nM | 10000 nM
[1] | -6.85 | -3.28 | -7.18 | 1.24 | 91.6
[2] | -3.96 | -13.2 | 7.28 | 11.9 | 79
[3] | -6.14 | -4.91 | 10.5 | 15.8 | 64.8
[4] | -6.61 | -9.38 | 0.61 | -5.6 | 101
[5] | -2.16 | -7.49 | -4.01 | -0.85 | 74.1
[6] | 0.66 | -5.53 | -1.76 | 2.33 | 70.3
[7] | -12.3 | -12.6 | -18.4 | -6.32 | 71.4
[8] | 0.4 | -1.51 | 5.95 | 10.5 | 87.7
[9] | -2.34 | -9.57 | -7.02 | 0.18 | 101
[10] | -0.33 | -5.36 | 0.48 | 5.22 | 96.3
[11] | -7.45 | -5.71 | -0.28 | 8.35 | 31.7
[12] | -9.34 | -11 | -25.2 | -21.8 | 56.1
[13] | -3.36 | 0.75 | -2.9 | 7.24 | 63.5
[14] | -11.8 | -13 | 3.62 | 7.57 | 37.4

Details | drug sensitivity score
[15] | 5.26
[16] | 6.38
[17] | 5.78
[18] | 5.24
[19] | 4.02
[20] | 4.18
[21] | 3.47
[22] | 6.62
[23] | 5.74
[24] | 6.1
[25] | 2.67
[26] | 2.14
[27] | 4.67
[28] | 3.04

CS(=O)(=O)N1CCc2c(-c3cnc(N)nc3)nc(N3CCOCC3)nc21 (max concentration tested 10000 nM)
percent inhibition of viability [%]
Details | 1 nM | 10 nM | 100 nM | 1000 nM | 10000 nM
[1] | -0.53 | -3.07 | 3.27 | 24.3 | 52.9
[2] | -25.7 | -37.9 | 3.84 | -1.15 | 14.8
[3] | -5.22 | -10.5 | 16.6 | 24.4 | 35.2
[4] | -0.46 | 0.95 | 2.38 | -7.5 | -15.8
[5] | 7.02 | 7.63 | 15.1 | 29.3 | 51.8
[6] | 4.61 | 0.28 | 4.3 | 32.1 | 62.7
[7] | 14.7 | 9.02 | 17.7 | 40.3 | 71.3
[8] | -3.09 | -4.08 | 3.85 | 42.4 | 85.6
[9] | 4.51 | -0.98 | -0.03 | 9.84 | 39.7
[10] | 2.76 | 1.12 | 1.06 | 26.2 | 75.4
[11] | -11.3 | -9.29 | 13 | 19.5 | 28.9
[12] | -21.9 | -10.1 | -16.1 | 5.8 | 44.2
[13] | -5.62 | -3.32 | 15.7 | 40.8 | 55.8
[14] | -2.54 | -3.72 | -0.24 | 21.6 | 34.8

Details | drug sensitivity score
[15] | 5.59
[16] | 0.17
[17] | 5.87
[18] | 0
[19] | 7.4
[20] | 7.16
[21] | 10.4
[22] | 9.77
[23] | 3.5
[24] | 7.87
[25] | 4.2
[26] | 3.23
[27] | 9.23
[28] | 4.2
